Experimental data as given in PMC2790104, “Effects of Acrylamide on the Activity and Structure of Human Brain Creatine Kinase” (International Journal of Molecular Sciences, 2009).

Biological target: T1, HBCK (human brain-type creatine kinase, human BB-CK) (Homo sapiens, UniProt P12277)
T1 construct: gene CKB; homodimer BB; identified by LC-MS/MS
Test: residual activity after […] h incubation, pH-colorimetric assay (thymol blue, […] nm)
Type: biochemical

T1 sequence (P12277 2-381): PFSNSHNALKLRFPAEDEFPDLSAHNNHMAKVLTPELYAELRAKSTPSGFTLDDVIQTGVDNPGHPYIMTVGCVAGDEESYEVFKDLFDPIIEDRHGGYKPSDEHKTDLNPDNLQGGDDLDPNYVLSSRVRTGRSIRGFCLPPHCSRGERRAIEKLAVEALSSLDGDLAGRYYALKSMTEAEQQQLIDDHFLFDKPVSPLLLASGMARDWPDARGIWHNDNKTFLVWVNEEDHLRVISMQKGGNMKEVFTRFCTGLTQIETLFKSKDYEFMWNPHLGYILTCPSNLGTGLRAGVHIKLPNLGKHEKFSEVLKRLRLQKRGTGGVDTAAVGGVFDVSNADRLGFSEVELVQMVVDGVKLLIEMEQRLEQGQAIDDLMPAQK

C=CC(N)=O [acrylamide]
IC50: ~50 mM
